Data on 14 compounds can be found in patent US4762846A (priority 1986, dated 1988).

The term IC50 denotes the concentration at which inhibition is half-maximal. For orientation: Kd means the free concentration of one partner at which half of the binding sites on the other are occupied at equilibrium, for simple one-to-one binding.

Several values for one entry are separate records, joined by “and”; a condition that tells them apart may be missing. Equal entries are not always repeated. Entries after “also recorded” stand apart in the source; their conditions may differ. Structures can show the parent of a compound that is named as a salt. Where two headings read alike, the source gives them in different places. Some results are limits rather than exact numbers.

In series [1] the target is benzodiazepine receptors ([3H]diazepam site). It counts as binding, rat.
Series [2] deals with phencyclidine receptors ([3H]PCP binding site). On the set-up: species or system rat.
The target in a further series is T1, opioid receptors (Rattus norvegicus, UniProt P33535).
T1 construct: from tissue; host or cells: brain tissue (rat, inferred from the sister test)
T1 sequence (P33535 whole entry): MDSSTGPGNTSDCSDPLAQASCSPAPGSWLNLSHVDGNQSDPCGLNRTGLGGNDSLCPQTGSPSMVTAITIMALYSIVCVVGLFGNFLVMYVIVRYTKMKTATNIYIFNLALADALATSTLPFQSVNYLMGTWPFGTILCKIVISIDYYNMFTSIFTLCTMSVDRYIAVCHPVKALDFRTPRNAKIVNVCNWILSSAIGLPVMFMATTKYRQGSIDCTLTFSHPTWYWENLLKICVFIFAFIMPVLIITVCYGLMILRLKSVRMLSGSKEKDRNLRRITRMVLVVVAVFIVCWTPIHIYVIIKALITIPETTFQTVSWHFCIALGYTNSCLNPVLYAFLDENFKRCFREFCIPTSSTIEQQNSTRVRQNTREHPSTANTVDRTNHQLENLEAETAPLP
Particulars: cited from earlier work.

For series [3] the following is noted: cited from earlier work.
Series [4] addresses Phencyclidine Receptor. It counts as binding, rat. Particulars: for IC50: read-out: Apparent IC50.
The target of the next series is muscarinic receptors. It counts as binding, rat.
Series [5] relates to Phencyclidine Receptor. The format is binding, rat.
In series [6] the test system is cerebellar Purkinje neurons. Particulars: local administration, denervation or antipsychotics; cited from earlier work.
Series [7] is described as follows: Water solubility of Metaphit salts. The following applies: relative to the hydrochloride.
Series [8] concerns PCP receptors. The series can be described thus: Scatchard analysis of [3H]TCP binding after treatment with affinity ligand. Details: species or system rat.
In series [9] the target is PCP receptors. The series can be described thus: [3H]PCP binding (Scatchard) in brain homogenates of rats pretreated i.c.v. with Metaphit or saline. Details: species or system rat (male Sprague-Dawley). The following applies: saline-pretreated rats; mean ±S.E.

In the case of `c1ccc(C2(N3CCCCC3)CCCCC2)cc1` [PCP, 1-(1-phenylcyclohexyl)piperidine], the IC50 in series [1] is over 200000 nM; in series [2] (read-out: IC50) it was 75 nM and 70 nM; in series [2] (read-out: apparent IC50), 150 nM; on opioid receptors, 13000 nM; at Phencyclidine Receptor [4], 70 nM; against muscarinic receptors, 25000 nM. In series [3] (use as anesthetic), the “duration of psychological side effects” value is listed as “more than 12 hours”. Also, in the series with Phencyclidine Receptor [5] (10 uM PCP alone), the washout from homogenate entry was “completely washed out of the homogenate”.
`CC(C)NC1(c2ccccc2)CCCCC1` [PCI]: the IC50 in series [2] (read-out: apparent IC50) amounted to 50 nM.
lithium: the “effect on PCP/PCMP-induced depressions of cerebellar Purkinje neurons” value in series [6] is “strongly antagonized PCP-induced depressions”.
For `CCNC1(c2cccc(N=C=S)c2)CCCCC1` [Ethylphit], the IC50 on Phencyclidine Receptor [4] came to 3840 nM.
For `S=C=Nc1cccc(C2(N3CCCCC3)CCCCC2)c1` [methanesulfonate salt], the solubility in water result in series [7] was “considerably more soluble in water than the hydrochloride”.
Take `S=C=Nc1csc(C2(N3CCCCC3)CCCCC2)c1` [Thiophit]: in the series with PCP receptors [8] (10 μM affinity ligand), the “Bmax ([3H]-TCP) in treated tissue” value was 700 fmol/mg protein and the “reduction in Bmax” value was about 30%. Moreover, the Kd on PCP receptors [8] (10 μM affinity ligand, value is for [3H]-TCP (1.0 to 150 nM), read-out: Kd ([3H]-TCP) in treated tissue) was 27 nM. In the series on Phencyclidine Receptor [4], the “affinity for the PCP receptor relative to other ligands” value was “much higher affinity for the PCP receptors; also recorded: considerably higher affinity for the PCP receptor than either of the other two affinity ligands”, the “potency relative to metaphit” value is given as “three times as potent as metaphit” and the IC50 was 900 nM.
On to `c1csc(C2(N3CCCCC3)CCCCC2)c1` [[3H]-TCP], for which, at PCP receptors [8] (control tissue, [3H]-TCP 1.0 to 150 nM, read-out: Kd for control ([3H]-TCP)), the Kd was 15 nM. In addition, the “Non-specific binding of radioligand” value in the series with Phencyclidine Receptor [4] was determined as 10%.
Regarding `c1ccc(C2(N3CCCCC3)CCCCC2)cc1` [[3H]-PCP], the “Non-specific binding of radioligand” value in [2] ([3H]-PCP) is 30 % of the total binding. Further, the dissociation constant (Kd) on PCP receptors [9] worked out at 237 ± 8 nM.
With `NCCc1cc(O)c(O)cc1O` [6-OHDA], the “effect on PCP/PCMP-induced depressions of cerebellar Purkinje neurons” value in series [6] is reported as “completely eliminates stereospecific Purkinje cell responses to PCMP”.
With `S=C=Nc1cccc(C2(N3CCCCC3)CCCCC2)c1` [Metaphit, 1-[1-(3-isothiocyanatophenyl)cyclohexyl]piperidine], the “Maximum % Alkylation by 10 uM Metaphit” value (in [1]; in the series with muscarinic receptors) was 0% throughout. The “irreversible loss of QNB binding” value in the series on muscarinic receptors was “without a significant loss of QNB binding”.
`c1csc(C2(N3CCCCC3)CCCCC2)c1` [TCP]: in series [2], the “potency relative to PCI” value was “twice as potent as PCI”. Further, in the series with Phencyclidine Receptor [4], the “affinity for the PCP receptor relative to PCP” value is “considerably higher affinity for the PCP receptor than PCP” and the IC50 is 20 nM. The washout from homogenate entry in the series with Phencyclidine Receptor [5] is recorded as “completely washed out of the homogenate”.
In the case of `CC(C)NC1(c2cccc(N=C=S)c2)CCCCC1` [Isopropylphit], the IC50 at Phencyclidine Receptor [4] is 2700 nM.
In the case of `CNC1(c2ccccc2Cl)CCCCC1=O` (stereo not drawn) [Ketamine], the “psychotomimetic effects relative to PCP” value in series [3] (in vivo) is “psychotomimetic effects that do not occur as frequently as with PCP”.
For `CCNC1(c2ccccc2)CCCCC1` [PCE, (1-Phenylcyclohexyl)ethylamine], the half-maximal inhibitory concentration (IC50) in series [2] (read-out: apparent IC50) was found to be 240 nM.
